# Results taken from PMC6691788, “Design and synthesis of phthalazine-based compounds as potent anticancer agents with potential antiangiogenic activity via VEGFR-2 inhibition” (Journal of Enzyme Inhibition and Medicinal Chemistry, 2019).
# Legend:
# [1] = test system: HL-60(TB); assay: NCI 60 cell panel SRB screen; type: cell-based; conditions: Homo sapiens
# [2] = test system: NCI-H226; assay: NCI 60 cell panel SRB screen; type: cell-based; conditions: Homo sapiens
# [3] = test system: NCI-H23; assay: NCI 60 cell panel SRB screen; type: cell-based; conditions: Homo sapiens
# [4] = test system: NCI-H460; assay: NCI 60 cell panel SRB screen; type: cell-based; conditions: Homo sapiens
# [5] = test system: SNB-19; assay: NCI 60 cell panel SRB screen; type: cell-based; conditions: Homo sapiens
# [6] = test system: SNB-75; assay: NCI 60 cell panel SRB screen; type: cell-based; conditions: Homo sapiens
# [7] = test system: U251; assay: NCI 60 cell panel SRB screen; type: cell-based; conditions: Homo sapiens, U-251
# [8] = test system: SK-MEL-28; assay: NCI 60 cell panel SRB screen; type: cell-based; conditions: Homo sapiens
# [9] = test system: IGROV1; assay: NCI 60 cell panel SRB screen; type: cell-based; conditions: Homo sapiens, IGROV-1
# [10] = test system: OVCAR-5; assay: NCI 60 cell panel SRB screen; type: cell-based; conditions: Homo sapiens
# [11] = test system: NCI/ADR-RES; assay: NCI 60 cell panel SRB screen; type: cell-based; conditions: Homo sapiens
# [12] = test system: SK-OV-3; assay: NCI 60 cell panel SRB screen; type: cell-based; conditions: Homo sapiens
# [13] = test system: ACHN; assay: NCI 60 cell panel SRB screen; type: cell-based; conditions: Homo sapiens
# [14] = test system: CAKI-1; assay: NCI 60 cell panel SRB screen; type: cell-based, human
# [15] = test system: RXF 393; assay: NCI 60 cell panel SRB screen; type: cell-based; conditions: Homo sapiens
# [16] = test system: SN12C; assay: NCI 60 cell panel SRB screen; type: cell-based; conditions: Homo sapiens
# [17] = test system: PC-3; assay: NCI 60 cell panel SRB screen; type: cell-based; conditions: Homo sapiens
# [18] = test system: T-47D; assay: NCI 60 cell panel SRB screen; type: cell-based; conditions: Homo sapiens, T47D
# [19] = test system: full NCI 60 cell panel; assay: NCI 60 cell panel SRB screen, whole panel; type: cell-based, human
# From the text: Aiming to evaluate the general antitumour activity of the synthesised phthalazines, the structures of the final compounds were submitted to National Cancer Institute “NCI” (www.dtp.nci.nih.gov), Bethesda, Maryland, USA. In vitro NCI anticancer screening involves two-stage process, the first stage started with the evaluation of the selected candidates against the full NCI 60 cell lines panel representing leukaemia, non-small cell lung cancer, melanoma, colon, CNS, breast, ovarian, renal and prostate cancers at a single dose of 10 µM. NCI selection is based on degree of structure variation and application of computer modelling techniques to prioritise compounds based on their ability to add diversity to the NCI small molecule compound collection.
# Eight compounds (6b, 6e, 7b, 13a, 13c, 16a, 16d and 17a) were selected by NCI for further 5 log dose screening against full NCI 60 cell panel. All the 60 cell lines, representing nine tumour subpanels (leukaemia, non-small cell lung cancer, colon cancer, CNS cancer, prostate cancer, melanoma, ovarian cancer, renal cancer and breast cancer) which were incubated at five different concentrations (0.01, 0.1, 1, 10 and 100 µM) of each of the test compounds. The outcomes were used to create log concentration vs % growth inhibition curves, then three response parameters (GI50, TGI and LC50) were calculated for each cell line, (Tables S4 and S5 in Supplementary material).
# The human tumor cell lines of the cancer-screening panel were grown in RPMI 1640 medium containing 5% fetal bovine serum and […] L-glutamine. For a typical screening experiment, cells are inoculated into 96 well microtiter plates in 100 ml at plating densities ranging from 5000 to 40,000 cells/well depending on the doubling time of individual cell lines. After cell inoculation, the microtiter plates are incubated at 37 °C, 5% CO2, 95% air and 100%
# relative humidity for 24 h prior to addition of experimental drugs. After 24 h, two plates of each cell line are fixed in situ with TCA, to represent a measurement of the cell population for each cell line at the time of drug addition (Tz). Experimental drugs are dissolved in dimethyl sulfoxide at 400-fold the desired final maximum test concentration and stored frozen prior to use. At the time of drug addition, an aliquot of frozen concentrate is thawed and diluted to twice the desired final maximum test concentration with complete medium containing […] Gentamicin. Additional four, 10-fold or ½log serial dilutions are made to provide a total of five drug concentrations plus control. Aliquots of […] of these different drug dilutions are added to the appropriate microtiter wells already containing 100 ml of medium, resulting in the required final drug concentrations. Following drug addition, the plates are incubated for an additional 48 h at 37 °C, 5% CO2, 95% air, and 100% relative humidity. For adherent cells, the assay is terminated by the addition of cold TCA. Cells are fixed in situ by the gentle addition of […] of cold 50% (w/v) TCA (final concentration,10% TCA) and incubated for 60 min at 4 °C. The supernatant is discarded, and the plates are washed five times with tap water and air dried. Sulforhodamine B (SRB) solution (100 ml) at 0.4% (w/v) in 1% acetic acid is added to each well, and plates are incubated for 10 min at room temperature. After staining, unbound dye is removed by washing five times with 1% acetic acid and the plates are air dried. Bound stain is subsequently dissolved with 10 μM trizma base, and the absorbance is read on an automated plate reader at a wavelength of 515 nm. For suspension cells, the methodology is the same except that the assay is terminated by fixing settled cells at the bottom of the wells by gently adding […] of 80% TCA (final concentration, 16% TCA). […]
# [20] = 5 log dose, 48 h, read-out: LC50 (the source's name)
# [21] = single dose 10 μM, read-out: percent cell growth promotion
compound,measurement,setting,value
"Cc1nnc(Nc2ccc(NC(=O)Nc3ccc(Cl)cc3)cc2)c2ccccc12 [Compound 6e, 1–(4-Chlorophenyl)-3–(4-(4-methylphthalazin-1-ylamino)phenyl)urea]",GI50,[1]; 5 log dose,2.03 µM
same,IC (TGI),[1]; 5 log dose,4.18 µM
same,CC50,[1]; [20],8.64 µM
same,activity at 10 µM,[1]; [21],-34.8%
same,GI50,"[2]; NCI-H226, 5 log dose",3.61 µM
same,IC (TGI),"[2]; NCI-H226, 5 log dose",15.9 µM
same,CC50,"[2]; NCI-H226, 5 log dose, 48 h, read-out: LC50 (the source's name)",64.6 µM
same,activity at 10 µM,"[2]; NCI-H226, single dose 10 μM, read-out: percent cell growth promotion",71.9%
same,GI50,"[3]; NCI-H23, 5 log dose",2.38 µM
same,IC (TGI),"[3]; NCI-H23, 5 log dose",6.31 µM
same,CC50,"[3]; NCI-H23, 5 log dose, 48 h, read-out: LC50 (the source's name)",40.9 µM
same,activity at 10 µM,"[3]; NCI-H23, single dose 10 μM, read-out: percent cell growth promotion",48.8%
same,GI50,"[4]; NCI-H460, 5 log dose",3.46 µM
same,IC (TGI),"[4]; NCI-H460, 5 log dose",11.7 µM
same,LC50 (concentration causing 50% cell kill),"[4]; NCI-H460, 5 log dose, 48 h",39.1 µM
same,activity at 10 µM,"[4]; NCI-H460, single dose 10 μM, read-out: percent cell growth promotion",26.1%
same,GI50,"[5]; SNB-19, 5 log dose",2.77 µM
same,IC (TGI),"[5]; SNB-19, 5 log dose",8.72 µM
same,CC50,"[5]; SNB-19, 5 log dose, 48 h, read-out: LC50 (the source's name)",56.6 µM
same,activity at 10 µM,"[5]; SNB-19, single dose 10 μM, read-out: percent cell growth promotion",16.2%
same,GI50,"[6]; SNB-75, 5 log dose",1.91 µM
same,IC (TGI),"[6]; SNB-75, 5 log dose",5.49 µM
same,LC50 (concentration killing 50% of cells),"[6]; SNB-75, 5 log dose, 48 h",21.3 µM
same,activity at 10 µM,"[6]; SNB-75, single dose 10 μM, read-out: percent cell growth promotion",68.1%
same,GI50,"[7]; U251, 5 log dose",1.98 µM
same,IC (TGI),"[7]; U251, 5 log dose",3.75 µM
same,CC50,"[7]; U251, 5 log dose, 48 h, read-out: LC50 (the source's name)",7.07 µM
same,activity at 10 µM,"[7]; U251, single dose 10 μM, read-out: percent cell growth promotion",5.4%
same,GI50,[8]; SK-MEL-28,1.63 µM
same,IC (TGI),"[8]; SK-MEL-28, read-out: TGI",3.2 µM
same,activity at 10 µM,"[8]; SK-MEL-28, read-out: percent cell growth promotion",-11.9%
same,CC50,"[8]; SK-MEL-28, 5 log dose, 48 h, read-out: LC50 (the source's name)",6.29 µM
same,GI50,"[9]; IGROV1, 5 log dose",3.98 µM
same,IC (TGI),"[9]; IGROV1, 5 log dose",19.5 µM
same,CC50,"[9]; IGROV1, 5 log dose, 48 h, read-out: LC50 (the source's name)",> 100 µM
same,activity at 10 µM,"[9]; IGROV1, single dose 10 μM, read-out: percent cell growth promotion",62%
same,GI50,"[10]; OVCAR-5, 5 log dose",2.1 µM
same,IC (TGI),"[10]; OVCAR-5, 5 log dose",4.99 µM
same,CC50,"[10]; OVCAR-5, 5 log dose, 48 h, read-out: LC50 (the source's name)",18.7 µM
same,activity at 10 µM,"[10]; OVCAR-5, single dose 10 μM, read-out: percent cell growth promotion",72.8%
same,GI50,[11]; 5 log dose,3.63 µM
same,IC (TGI),[11]; 5 log dose,14.9 µM
same,CC50,[11]; [20],> 100 µM
same,activity at 10 µM,[11]; [21],45.1%
same,GI50,"[12]; SK-OV-3, 5 log dose",2.61 µM
same,IC (TGI),"[12]; SK-OV-3, 5 log dose",6.59 µM
same,CC50,"[12]; SK-OV-3, 5 log dose, 48 h, read-out: LC50 (the source's name)",30.7 µM
same,activity at 10 µM,"[12]; SK-OV-3, single dose 10 μM, read-out: percent cell growth promotion",66.4%
same,GI50,[13]; 5 log dose,1.84 µM
same,IC (TGI),[13]; 5 log dose,3.69 µM
same,CC50,[13]; [20],7.41 µM
same,activity at 10 µM,[13]; [21],58.8%
same,TGI,"[14]; CAKI-1, 5 log dose",12.8 µM
same,GI50,"[14]; Homo sapiens, CAKI-1, 5 log dose",3.49 µM
same,CC50,"[14]; Homo sapiens, CAKI-1, 5 log dose, 48 h, read-out: LC50 (the source's name)",43.6 µM
same,activity at 10 µM,"[14]; Homo sapiens, CAKI-1, single dose 10 μM, read-out: percent cell growth promotion",33.9%
same,GI50,"[15]; RXF 393, 5 log dose",2.17 µM
same,IC (TGI),"[15]; RXF 393, 5 log dose",4.13 µM
same,CC50,"[15]; RXF 393, 5 log dose, 48 h, read-out: LC50 (the source's name)",7.84 µM
same,activity at 10 µM,"[15]; RXF 393, single dose 10 μM, read-out: percent cell growth promotion",-39.7%
same,GI50,[16]; 5 log dose,2.86 µM
same,IC (TGI),[16]; 5 log dose,9.41 µM
same,CC50,[16]; [20],60.1 µM
same,activity at 10 µM,[16]; [21],60.1%
same,GI50,"[17]; PC-3, 5 log dose",3.49 µM
same,IC (TGI),"[17]; PC-3, 5 log dose",11.9 µM
same,CC50,"[17]; PC-3, 5 log dose, 48 h, read-out: LC50 (the source's name)",62.7 µM
same,activity at 10 µM,"[17]; PC-3, single dose 10 μM, read-out: percent cell growth promotion",22.8%
same,GI50,[18],2.06 µM
same,IC (TGI),[18]; read-out: TGI,5.08 µM
same,activity at 10 µM,[18]; read-out: percent cell growth promotion,8.43%
same,CC50,"[18]; T-47D, 5 log dose, 48 h, read-out: LC50 (the source's name)",56.4 µM
same,activity at 10 µM,"[19]; Homo sapiens, 60 cell, mean over the panel, single dose 10 μM, read-out: Mean percent cell growth promotion",23.2%
same,inhibition at 10 µM,"[19]; Homo sapiens, 60 cell, single dose 10 µM, read-out: cell growth inhibition against various cell lines",> 90%
same,"cell growth inhibition, in words",[19]; single dose 10 µM,"lethal effect (above 100% inhibition) against several leukaemia, melanoma, renal cancer cell lines"
